Test results reported in patent publication US7022480B1, “Exons of the hSKCa3/KCNN3 gene” (priority 2001, dated 2006).

Key:
SKCa and IKCa1 channel = conditions: reported in the literature; cited from earlier work
[1] = target: T1, Kv1.3 channels in Jurkat T lymphocytes (Homo sapiens, UniProt P22001); experiment: Whole-cell patch clamp of Kv1.3 current in Jurkat T lymphocytes (internal control); type: cell-based; conditions: transfected Jurkat T lymphocytes
T1 construct: endogenous in cells; host or cells: Jurkat T lymphocytes
Protocol: (§1) PC12 and Jurkat T cells were studied in the whole cell configuration of the patch clamp technique with a holding potential of −80 mV. SK and Kv current amplitude were determined in untransfected cells or in cells transfected with SKCa3-1b-GFP, SKCa3-1b-IRES-GFP, or control constructs (GFP vector alone, GFP-Kv1.7). […] Brightly GFP-positive cells were identified under a fluorescence microscope to allow the analysis of cells expressing high levels of the channel constructs for electrophysiological studies. Control constructs were expressed at equivalently high levels as assessed by the intensity of the GFP signal.
(§2) To activate SK channels, the pipette solution contained (in mM): 145 K^+ aspartate, 2 MgCl2, 10 HEPES, 10 K2EGTA, and 8.5 CaCl2 (1 μM free Ca^2+), pH 7.2, 290–310 mOsm. […] The amplitude of the KV current was measured as the maximum current at 30 mV in 160 Na^+ aspartate. […]
(§3) Human Jurkat T lymphocyte cell line was chosen for these experiments because they express SK2 channels and no other SK channels, along with voltage-gated Kv1.3 channels that could serve as an internal control (Fanger et al, J. Biol. Chem. 2001; 276: 12249–12256; Grissmer et al, J. Gen. Physiol. 1992; 99: 63–84; Desai et al, J. Biol. Chem. 2000; 275: 39954–39963.). Using the electrophysiological protocol described above for PC12 cells, SK2 and Kv1.3 currents in Jurkat cells were measured. […]

SKCa3-1a currents = experiment: Co-expression with SKCa3-1a in mammalian cells, calcium-activated currents; type: cell-based; conditions: untagged or with a GFP tag
Text: When normally expressed in mammalian cells, native or green fluorescence protein (GFP) tagged SKCa3-1a produces robust apamin- and Leiurus toxin-sensitive calcium-activated currents (Shakkottai et al., J. Biol. Chem. 276 (46): 43145–43151, 2001.).

[2] = target: T2, SK2 channels in Jurkat T lymphocytes (Homo sapiens, UniProt Q9H2S1); experiment: Whole-cell patch clamp of native SK2 current in Jurkat T lymphocytes; type: cell-based; conditions: transfected Jurkat T lymphocytes
T2 construct: endogenous in cells; host or cells: Jurkat T lymphocytes
Protocol: as §1, §2, §3

GFP-SKCa1 currents = experiment: Co-expression with GFP-SKCa1 in mammalian cells, calcium-activated currents; type: cell-based; conditions: expressed in mammalian cells
Text: GFP-SKCa1 produces robust calcium-activated currents when expressed in COS-7 cells (Shakkottai et al., J. Biol. Chem. 276 (46): 43145–43151, 2001.). When co-expressed with fluorescently labeled SKCa3-1b (Tomita et al, 2002 Mol. Psych. In press) or fluorescently labeled SKCa3-1c, dominant-negative suppression of SKCa3-1a is seen. Similarly, fluorescently labeled SKCa3-1b (Tomita et al, 2002 Mol. Psych. In press) and fluorescently labeled SKCa3-1c dominant-negatively suppress endogenous SKCa currents present in PC12 cells (Sun et al., J. Hum. Genet. 46, 463–470, 2001.).

SKCa3-1a currents, sequence (Q9UGI6 81-731): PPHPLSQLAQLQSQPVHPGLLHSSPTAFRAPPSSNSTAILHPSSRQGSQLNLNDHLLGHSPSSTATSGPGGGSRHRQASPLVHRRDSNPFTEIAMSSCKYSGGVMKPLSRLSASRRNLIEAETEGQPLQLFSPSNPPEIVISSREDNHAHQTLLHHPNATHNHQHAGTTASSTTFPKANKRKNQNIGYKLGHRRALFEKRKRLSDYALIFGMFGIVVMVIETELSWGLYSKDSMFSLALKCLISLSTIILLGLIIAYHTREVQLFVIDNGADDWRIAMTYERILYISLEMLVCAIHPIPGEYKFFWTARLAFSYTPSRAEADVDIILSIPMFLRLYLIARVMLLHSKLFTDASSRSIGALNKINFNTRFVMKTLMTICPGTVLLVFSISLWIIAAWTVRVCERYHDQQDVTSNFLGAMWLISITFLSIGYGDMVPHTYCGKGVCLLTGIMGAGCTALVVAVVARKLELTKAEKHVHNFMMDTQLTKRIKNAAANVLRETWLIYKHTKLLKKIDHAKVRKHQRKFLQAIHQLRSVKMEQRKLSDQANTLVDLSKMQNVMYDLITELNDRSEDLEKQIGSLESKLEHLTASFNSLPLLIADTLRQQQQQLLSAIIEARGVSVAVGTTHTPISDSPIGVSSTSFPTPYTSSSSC
GFP-SKCa1 currents, sequence (Q92952 2-543): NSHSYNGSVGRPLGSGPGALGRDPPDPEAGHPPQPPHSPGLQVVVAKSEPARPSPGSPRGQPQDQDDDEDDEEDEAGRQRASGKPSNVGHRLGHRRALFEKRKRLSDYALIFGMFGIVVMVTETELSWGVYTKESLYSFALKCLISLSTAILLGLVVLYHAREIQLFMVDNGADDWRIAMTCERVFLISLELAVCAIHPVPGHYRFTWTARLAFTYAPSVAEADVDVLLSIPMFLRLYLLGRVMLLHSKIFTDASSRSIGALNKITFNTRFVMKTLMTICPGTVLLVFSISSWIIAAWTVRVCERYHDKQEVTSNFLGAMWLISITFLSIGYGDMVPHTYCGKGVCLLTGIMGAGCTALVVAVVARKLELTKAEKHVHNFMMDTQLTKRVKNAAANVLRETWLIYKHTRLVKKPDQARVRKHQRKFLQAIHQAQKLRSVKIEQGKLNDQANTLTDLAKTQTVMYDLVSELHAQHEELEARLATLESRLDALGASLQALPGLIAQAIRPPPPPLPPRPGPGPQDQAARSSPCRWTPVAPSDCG
T2 sequence (Q9H2S1 whole entry): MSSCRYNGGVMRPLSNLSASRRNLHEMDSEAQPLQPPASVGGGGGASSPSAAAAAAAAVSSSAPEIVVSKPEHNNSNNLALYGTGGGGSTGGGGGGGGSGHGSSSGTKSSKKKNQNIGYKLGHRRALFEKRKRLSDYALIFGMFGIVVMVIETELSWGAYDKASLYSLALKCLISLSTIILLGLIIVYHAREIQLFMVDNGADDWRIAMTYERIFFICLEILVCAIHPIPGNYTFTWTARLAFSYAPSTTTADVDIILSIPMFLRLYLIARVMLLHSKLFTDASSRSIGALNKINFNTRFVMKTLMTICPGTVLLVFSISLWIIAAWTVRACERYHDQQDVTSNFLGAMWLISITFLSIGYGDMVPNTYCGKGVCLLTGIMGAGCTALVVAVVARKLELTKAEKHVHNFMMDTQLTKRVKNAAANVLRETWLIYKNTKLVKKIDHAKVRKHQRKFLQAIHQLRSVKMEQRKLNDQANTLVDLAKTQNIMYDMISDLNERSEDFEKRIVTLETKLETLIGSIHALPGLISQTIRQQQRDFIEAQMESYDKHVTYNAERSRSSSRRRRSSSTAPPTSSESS
T1 sequence (P22001 whole entry): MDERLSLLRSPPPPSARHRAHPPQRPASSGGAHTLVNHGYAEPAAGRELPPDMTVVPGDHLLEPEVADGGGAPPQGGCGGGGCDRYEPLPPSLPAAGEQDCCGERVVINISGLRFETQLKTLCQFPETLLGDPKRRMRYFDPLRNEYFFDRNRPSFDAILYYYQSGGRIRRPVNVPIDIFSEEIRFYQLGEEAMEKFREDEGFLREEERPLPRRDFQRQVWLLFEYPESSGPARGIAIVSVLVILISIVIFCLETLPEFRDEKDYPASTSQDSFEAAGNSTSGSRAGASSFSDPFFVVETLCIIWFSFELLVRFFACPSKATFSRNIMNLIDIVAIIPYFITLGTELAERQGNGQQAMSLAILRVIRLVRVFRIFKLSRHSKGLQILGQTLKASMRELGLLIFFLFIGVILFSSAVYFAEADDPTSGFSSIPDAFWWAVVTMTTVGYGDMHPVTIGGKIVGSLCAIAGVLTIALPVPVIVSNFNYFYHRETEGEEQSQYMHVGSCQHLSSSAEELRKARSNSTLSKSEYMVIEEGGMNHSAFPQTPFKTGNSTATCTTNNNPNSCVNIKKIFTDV

| Compound | effect on SKCa and IKCa1 channel opening (SKCa and IKCa1 channel) | effect of transfection on control Kv1.3 current [1] | effect of co-expression on SKCa3-1a current (SKCa3-1a currents) | effect of transfection on native SK2 current [2] | effect on GFP-SKCa1 currents (GFP-SKCa1 currents) |
| --- | --- | --- | --- | --- | --- |
| CCn1c(=O)[nH]c2ccccc21 [1-ethyl-2-benzimidazolinone] | enhance SKCa and IKCa1 channel opening |  |  |  |  |
| SKCa3-1b: isoform variant of the SK3 gene (SEQ ID NO: 2) using exon 1b, lacking N-terminus and S1 segment |  | unaffected | selective dramatic inhibition | suppressed | negative dominantly suppress |
| SKCa3-1c: isoform variant of the SK3 gene (SEQ ID NO: 4) using exon 1c, lacking N-terminus and S1 segment |  |  | comparable results |  | negative dominantly suppress |
